Tests used:
AMBEL (Ragweed, Common) [1] = assay: Preemergence herbicidal evaluation; format: in vivo, Ambrosia artemisifolia; details: rated 4-5 weeks after treatment
Procedure, shortened: (§1)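 Each species is sown separately in potting soil over roughly an inch of soil before any emergence. The soil surface then receives an aqueous acetone spray delivering about 0.0156 to 0.500 kg/ha of compound. After four to five weeks, injury is scored from 0 to 9 relative to a control.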

ECHCG (Barnyardgrass) = assay: Postemergence herbicidal evaluation; format: in vivo, Echinochloa crus-galli
Procedure, shortened: (§2)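 Young plants, roughly two weeks from seeding, receive the active ingredient as a sprayed dispersion (acetone/water 50/50, 0.5% TWEEN 20) at 40 psi. Doses span about 0.0156 to 0.500 kg/ha. A visual score from 0 to 9 compares treated with control plants four to five weeks on.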

[2] = tested on: CHEAL (Lambsquarters, Common); assay: Preemergence herbicidal evaluation; format: in vivo, Chenopodium album; details: rated 4-5 weeks after treatment
Procedure, shortened: as §1

AMBEL (Ragweed, Common) [3] = assay: Postemergence herbicidal evaluation; format: in vivo, Ambrosia artemisifolia
Procedure, shortened: as §2

ZEAMX (Corn, Field) = assay: Postemergence herbicidal evaluation; format: in vivo, Zea mays
Procedure, shortened: as §2

ORYSAT (Rice, Tebonnet) = assay: Postemergence herbicidal evaluation; format: in vivo, Oryza sativa, (L.) Tebonnet
Procedure, shortened: as §2

GALAP (Galium) = assay: Preemergence herbicidal evaluation; format: in vivo, Galium aparine; details: rated 4-5 weeks after treatment
Procedure, shortened: as §1

CASOB (Sicklepod) = assay: Preemergence herbicidal evaluation; format: in vivo, Cassia obtusifolia; details: rated 4-5 weeks after treatment
Procedure, shortened: as §1

CYPSE (Flatsedge) = assay: Preemergence weed control under flooded paddy conditions; format: in vivo, Cyperus serotinus; details: rated 3-4 weeks after treatment
Procedure, shortened: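 First, seeds or propagules go into the top 0.5 cm of silt loam; next, water is held 1.5 to 3 cm over the soil; then compound (50/50 acetone/water) is pipetted into it at about 0.0313 to 0.500 kg/ha; finally plants are rated visually 0-9 after three to four weeks.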

ABUTH (Velvetleaf) = assay: Postemergence herbicidal evaluation; format: in vivo, Abutilon theophrasti
Procedure, shortened: as §2

[4] = tested on: GLXMAW (Soybean, Williams); assay: Postemergence herbicidal evaluation; format: in vivo, Glycine max, (L.) Merr. cv Williams
Procedure, shortened: as §2

[5] = tested on: CHEAL (Lambsquarters, Common); assay: Postemergence herbicidal evaluation; format: in vivo, Chenopodium album
Procedure, shortened: as §2

COCCCN1C(=O)CSC1=Nc1cc(-n2c(=O)cc(C(F)(F)F)n(C)c2=O)c(F)cc1Cl [Compound 172, 3-{4-Chloro-2-fluoro-5-{[3-(3-methoxypropyl)-4-oxo-2-thiazolidinylidene]amino}phenyl}-1-methyl-6-(trifluoromethyl)-2,4(1H, 3H)-pyrimidinedione]
6.5: Postemergence herbicidal rating GLXMAW ([4]; Rate 0.0313 kg/ha)
3.5: Postemergence herbicidal rating ORYSAT (ORYSAT (Rice, Tebonnet); Rate 0.0313 kg/ha) | Postemergence herbicidal rating ORYSAT (ORYSAT (Rice, Tebonnet); rate 0.0156 kg/ha)
2.0: Postemergence herbicidal rating ECHCG (ECHCG (Barnyardgrass); rate 0.0156 kg/ha)
0.0: Preemergence herbicidal rating GALAP (GALAP (Galium); 0.0156 kg/ha) | Preemergence herbicidal rating GALAP (GALAP (Galium); 0.0313 kg/ha)
5.0: Preemergence herbicidal rating AMBEL (AMBEL (Ragweed, Common) [1]; 0.0156 kg/ha) | Postemergence herbicidal rating ZEAMX (ZEAMX (Corn, Field); Rate 0.0313 kg/ha) | Postemergence herbicidal rating ZEAMX (ZEAMX (Corn, Field); Rate 0.0625 kg/ha) | Postemergence herbicidal rating ZEAMX (ZEAMX (Corn, Field); rate 0.0156 kg/ha) | Preemergence herbicidal rating GALAP (GALAP (Galium); 0.0625 kg/ha)
4.0: Postemergence herbicidal rating ORYSAT (ORYSAT (Rice, Tebonnet); Rate 0.0625 kg/ha)
9.0: Preemergence herbicidal rating AMBEL (AMBEL (Ragweed, Common) [1]; 0.0625 kg/ha) | Preemergence herbicidal rating AMBEL (AMBEL (Ragweed, Common) [1]; 0.1250 kg/ha) | Preemergence herbicidal rating AMBEL (AMBEL (Ragweed, Common) [1]; 0.2500 kg/ha) | Preemergence herbicidal rating CHEAL ([2]; 0.0156 kg/ha) | Preemergence herbicidal rating CHEAL ([2]; 0.0313 kg/ha) | Preemergence herbicidal rating CHEAL ([2]; 0.0625 kg/ha) | Preemergence herbicidal rating CHEAL ([2]; 0.1250 kg/ha) | Preemergence herbicidal rating CHEAL ([2]; 0.2500 kg/ha) | Postemergence herbicidal rating AMBEL (AMBEL (Ragweed, Common) [3]; Rate 0.0313 kg/ha) | Postemergence herbicidal rating AMBEL (AMBEL (Ragweed, Common) [3]; Rate 0.0625 kg/ha) | Preemergence herbicidal rating GALAP (GALAP (Galium); 0.2500 kg/ha) | Preemergence herbicidal rating CASOB (CASOB (Sicklepod); 0.1250 kg/ha) | Preemergence herbicidal rating CASOB (CASOB (Sicklepod); 0.2500 kg/ha) | herbicidal effect rating, CYPSE (CYPSE (Flatsedge); 0.1250 kg/ha) | herbicidal effect rating, CYPSE (CYPSE (Flatsedge); 0.2500 kg/ha) | Postemergence herbicidal rating ABUTH (ABUTH (Velvetleaf); Rate 0.0313 kg/ha) | Postemergence herbicidal rating ABUTH (ABUTH (Velvetleaf); Rate 0.0625 kg/ha) | Postemergence herbicidal rating ABUTH (ABUTH (Velvetleaf); rate 0.0156 kg/ha) | Postemergence herbicidal rating CHEAL ([5]; Rate 0.0313 kg/ha) | Postemergence herbicidal rating CHEAL ([5]; Rate 0.0625 kg/ha)
1.0: Preemergence herbicidal rating CASOB (CASOB (Sicklepod); 0.0156 kg/ha)
3.0: Postemergence herbicidal rating ECHCG (ECHCG (Barnyardgrass); Rate 0.0313 kg/ha) | Postemergence herbicidal rating ECHCG (ECHCG (Barnyardgrass); Rate 0.0625 kg/ha) | Preemergence herbicidal rating CASOB (CASOB (Sicklepod); 0.0313 kg/ha)
6.0: Postemergence herbicidal rating AMBEL (AMBEL (Ragweed, Common) [3]; rate 0.0156 kg/ha) | herbicidal effect rating, CYPSE (CYPSE (Flatsedge); 0.0625 kg/ha) | Postemergence herbicidal rating GLXMAW ([4]; rate 0.0156 kg/ha) | Postemergence herbicidal rating CHEAL ([5]; rate 0.0156 kg/ha)
7.0: Preemergence herbicidal rating AMBEL (AMBEL (Ragweed, Common) [1]; 0.0313 kg/ha) | Preemergence herbicidal rating GALAP (GALAP (Galium); 0.1250 kg/ha) | Preemergence herbicidal rating CASOB (CASOB (Sicklepod); 0.0625 kg/ha) | Postemergence herbicidal rating GLXMAW ([4]; Rate 0.0625 kg/ha)
